Data from PMC7961380, “A Systematic Study of the In Vitro Pharmacokinetics and Estimated Human In Vivo Clearance of Indole and Indazole-3-Carboxamide Synthetic Cannabinoid Receptor Agonists Detected on the Illicit Drug Market” (Molecules, 2021).
Where “and” joins values, the source holds several entries; their conditions need not be identical. Equal entries are not always repeated. Where two headings read alike, the source gives them in different places.

Key:
[1] = Plasma protein binding by equilibrium dialysis; type: in vitro ADME, human; conditions: for fraction unbound at 5 h, 10 µg mL^−1: human, pooled human plasma, pH 7.4, equilibrium dialysis 5 h, 37 °C
[2] = Metabolic stability, pooled human liver microsome incubations; conditions: for Predicted In Vivo Hepatic Clearance, CLH: from pHLM CLint, well-stirred model with plasma fu, Q 21 mL min^−1 kg^−1; for CLint scaled at 0.5 µM / half-life at 0.5 µM: human, microsomes; for CLint scaled at 0.5 µM: pH 7.4, Intrinsic clearance; for half-life at 0.5 µM: pH 7.4, T1/2 (min), pHLM 0.5 mg mL^−1, 0.5 µM, NADPH, 37 °C; for half-life at 0.5 µM / Microsomal Intrinsic Clearance, CLint micr: n ≥ 3 ± SD
[3] = Short-term plasma stability with and without esterase inhibitors; conditions: 37 °C; for remaining at 3 h, 5 µM / remaining at 5 h: human, pH 7.4, Parent Compound Remaining (%)
[4] = Metabolic stability, pooled human cryopreserved hepatocyte incubations; conditions: human, hepatocytes; for CLint scaled at 0.5 µM: Intrinsic clearance, pHHeps, alternative hepatocyte cell density 99x10^6 hepatocytes per gram liver; for half-life at 0.5 µM: T1/2 (min), pHHeps 0.25 million cells mL^−1, 0.5 µM, 37 °C, n ≥ 3 ± SD
[5] = system: pooled human cryopreserved hepatocytes (pHHeps); assay: as above; conditions: for Predicted In Vivo Hepatic Clearance, CLH: from pHHeps CLint, well-stirred model with plasma fu, Q 21 mL min^−1 kg^−1
[6] = 10 µg mL^−1, read-out: PPB (%) (converted)
[7] = plasma, read-out: Fraction Unbound (fu)
[8] = pHLM, alternative microsomal scaling factor 32 mg microsomal protein per gram liver
[9] = pHLM, alternative microsomal scaling factor 45 mg microsomal protein per gram liver
[10] = pHLM, scaling factor 32 mg microsomal protein per gram liver
[11] = pHLM, scaling factor 45 mg microsomal protein per gram liver
[12] = Esterase Inhibitors, pH 7.4, BNPP and PMSF 500 µM each
[13] = plasma, No Esterase Inhibitors, pH 7.4, pooled human plasma
[14] = pHHeps, 99x10^6 hepatocytes per gram liver

SMILES	fraction unbound at 5 h, 10 µg mL^−1 [1, 6]	fraction unbound at 5 h, 10 µg mL^−1 [1, 7]	Predicted In Vivo Hepatic Clearance, CLH [2]	Hepatic extraction ratio, EH ([2]; from pHLM incubations)	CLint scaled at 0.5 µM [2, 8]	CLint scaled at 0.5 µM [2, 9]	half-life at 0.5 µM [2]	% parent compound remaining, Average ([2]; pHLM, 3 min)	% parent compound remaining, Average ([2]; pHLM, 6 min)	% parent compound remaining, Average ([2]; pHLM, 9 min)	% parent compound remaining, Average ([2]; pHLM, 15 min)	% parent compound remaining, Average ([2]; pHLM, 30 min)	Microsomal Intrinsic Clearance, CLint micr ([2]; pHLM)	Hepatic extraction ratio, EH [2, 10]	Predicted in vivo hepatic clearance, CLH [2, 10]	Predicted in vivo hepatic clearance, CLH [2, 11]	remaining at 3 h, 5 µM [3, 12]	remaining at 3 h, 5 µM [3, 13]	CLint scaled at 0.5 µM [4]	half-life at 0.5 µM [4]	also measured
CC(C)[C@H](NC(=O)c1nn(Cc2ccc(F)cc2)c2ccccc12)C(N)=O [(S)-AB-FUBINACA (8), N-(1-amino-3-methyl-1-oxobutan-2-yl)-1-(4-fluorobenzyl)-1H-indazole-3-carboxamide]	0.021	0.021 ± 0.0044	0.34 mL/min/kg and 0.34 ± 0.09 mL/min/kg	0.02 and 0.02 ± 0.004	10 mL/min/kg	14.1 mL/min/kg	118 ± 28 min	87.3%	87.3%	85.0%	84.2%	79.6%	0.012 ± 0.003 mL min^−1 mg Microsomal Protein^−1	0.01 ± 0.003	0.21 ± 0.05 mL/min/kg	0.29 ± 0.07 mL/min/kg	103 ± 2.5%	104 ± 1.1%	101 ± 32 mL/min/kg	76 ± 24 min	Hepatic extraction ratio, EH [2, 11]: 0.01 ± 0.004; Predicted In Vivo Hepatic Clearance, CLH [5]: 2.06 ± 0.58 mL/min/kg; Hepatic extraction ratio, EH ([5]; from pHHeps incubations): 0.10 ± 0.028; Hepatic extraction ratio, EH [5, 14]: 0.09 ± 0.026; Predicted in vivo hepatic clearance, CLH [5, 14]: 1.92 ± 0.55 mL/min/kg; % parent compound remaining, Average ([5]; pHHeps, 3 min): 93.3%; % parent compound remaining, Average ([5]; pHHeps, 6 min): 86.0%; % parent compound remaining, Average ([5]; pHHeps, 9 min): 85.5%; % parent compound remaining, Average ([5]; pHHeps, 15 min): 85.4%; % parent compound remaining, Average ([5]; pHHeps, 30 min): 72.4%; % parent compound remaining, Average ([5]; pHHeps, 45 min): 69.5%; % parent compound remaining, Average ([5]; pHHeps, 60 min): 66.6%
C=CCCCn1cc(C(=O)N[C@H](C(=O)OC)C(C)C)c2ccccc21 [(S)-AMB-4en-PICA (7), methyl 3-methyl-2-[(1-pent-4-enylindole-3-carbonyl)amino] butanoate]	0.053	0.053 ± 0.0037	9.29 ± 0.89 mL/min/kg	0.44 ± 0.042	194 mL/min/kg	273 mL/min/kg	6 ± 1 min	67.6%	49.5%	36.3%	18.0%	3.0%	0.236 ± 0.042 mL min^−1 mg Microsomal Protein^−1	0.33 ± 0.038	6.86 mL/min/kg	8.51 mL/min/kg	95.6 ± 6.8%	92.6 ± 8.3%	1120 mL/min/kg	6.9 ± 2.1 min	Predicted In Vivo Hepatic Clearance, CLH [5]: 15.56 ± 1.24 mL/min/kg; Hepatic extraction ratio, EH ([5]; from pHHeps incubations): 0.74 ± 0.059; Hepatic extraction ratio, EH [5, 14]: 0.73 ± 0.061; Predicted in vivo hepatic clearance, CLH [5, 14]: 15.25 ± 1.28 mL/min/kg; % parent compound remaining, Average ([5]; pHHeps, 3 min): 68.4%; % parent compound remaining, Average ([5]; pHHeps, 6 min): 54.6%; % parent compound remaining, Average ([5]; pHHeps, 9 min): 33.2%; % parent compound remaining, Average ([5]; pHHeps, 15 min): 19.4%; % parent compound remaining, Average ([5]; pHHeps, 30 min): 6.5%; % parent compound remaining, Average ([5]; pHHeps, 45 min): 1.9%; % parent compound remaining, Average ([5]; pHHeps, 60 min): 0.6%
COC(=O)[C@@H](NC(=O)c1cn(CC2CCCCC2)c2ccccc12)C(C)C [(S)-AMB-CHMICA (9), methyl [1-(cyclohexylmethyl)-1H-indole-3-carbonyl]valinate]	0.012	0.012 ± 0.0006	4.37 ± 0.68 mL/min/kg	0.21 ± 0.032	282 mL/min/kg	397 mL/min/kg	4.1 ± 0.75 min	52.7%	35.1%	25.3%	9.9%	2.5%	0.343 ± 0.069 mL min^−1 mg Microsomal Protein^−1	0.14 ± 0.024	2.91 ± 0.50 mL/min/kg	3.87 ± 0.62 mL/min/kg	90.5 ± 3.4%	93.9 ± 9.3%	935 ± 44.8 mL/min/kg	7.6 ± 0.35 min	Hepatic extraction ratio, EH [2, 11]: 0.18 ± 0.030; Predicted In Vivo Hepatic Clearance, CLH [5]: 7.68 ± 0.22 mL/min/kg; Hepatic extraction ratio, EH ([5]; from pHHeps incubations): 0.37 ± 0.011; Hepatic extraction ratio, EH [5, 14]: 0.35 ± 0.011; Predicted in vivo hepatic clearance, CLH [5, 14]: 7.31 ± 0.23 mL/min/kg; % parent compound remaining, Average ([5]; pHHeps, 3 min): 65.0%; % parent compound remaining, Average ([5]; pHHeps, 6 min): 58.4%; % parent compound remaining, Average ([5]; pHHeps, 9 min): 43.3%; % parent compound remaining, Average ([5]; pHHeps, 15 min): 23.8%; % parent compound remaining, Average ([5]; pHHeps, 30 min): 8.7%; % parent compound remaining, Average ([5]; pHHeps, 45 min): 3.5%; % parent compound remaining, Average ([5]; pHHeps, 60 min): 1.5%
COC(=O)[C@@H](NC(=O)c1nn(Cc2ccc(F)cc2)c2ccccc12)C(C)C [(S)-AMB-FUBINACA (1), methyl [1-(4-fluorobenzyl)-1H-indazole-3-carbonyl]valinate]	0.019	0.019 ± 0.0008	15.27 ± 0.14 mL/min/kg	0.73 ± 0.006	1790 mL/min/kg	2520 mL/min/kg	0.6 ± 0.02 min	3.8%	0.7%	0.2%	0.1%	0.3%	2.182 ± 0.071 mL min^−1 mg Microsomal Protein^−1	0.62 ± 0.008	12.99 mL/min/kg	14.60 mL/min/kg	96.1 ± 1.6%	96.6 ± 3.8%	2980 mL/min/kg	2.5 ± 0.55 min	recovery (total peak area in dialysed samples vs 4 °C samples) ([1]; PPB thermal stability control, 5 h): 77 ± 4.4%; Parent Compound Remaining (%), Esterase Inhibitors ([3]; 5 h, pH 7.4, BNPP and PMSF 500 µM each): 93.5 ± 0.1%; Parent Compound Remaining (%), No Esterase Inhibitors ([3]; 5 h, pH 7.4, pooled human plasma): 85.9 ± 4.0%; remaining at 5 h ([3]; Esterase Inhibitors, 5 h, pH 7.4, BNPP and PMSF 500 µM each): 94 ± 0.1%; remaining at 5 h ([3]; plasma, No Esterase Inhibitors, 5 h, pH 7.4, pooled human plasma): 86 ± 4%; Predicted In Vivo Hepatic Clearance, CLH [5]: 15.52 ± 0.85 mL/min/kg; Hepatic extraction ratio, EH ([5]; from pHHeps incubations): 0.74 ± 0.041; Hepatic extraction ratio, EH [5, 14]: 0.72 ± 0.042; Predicted in vivo hepatic clearance, CLH [5, 14]: 15.21 ± 0.88 mL/min/kg; % parent compound remaining, Average ([5]; pHHeps, 3 min): 37.0%; % parent compound remaining, Average ([5]; pHHeps, 6 min): 18.7%; % parent compound remaining, Average ([5]; pHHeps, 9 min): 14.7%; % parent compound remaining, Average ([5]; pHHeps, 15 min): 6.2%; % parent compound remaining, Average ([5]; pHHeps, 30 min): 1.4%; % parent compound remaining, Average ([5]; pHHeps, 45 min): 1.1%; % parent compound remaining, Average ([5]; pHHeps, 60 min): 0.8%
